This note sets out measurements from patent US4060530A, “Clavulanic acid amides” (Beecham Group Limited, priority 1975, dated 1977).

The test system of series [1] is Staph. aureus Russell. The series can be described thus: MIC, method of Example 30 with 1/100 dilution of overnight broth (Example 46).
Procedure: (§1) The cultures were incubated overnight and the points of bacterial growth recorded next morning by observing the turbidity of the culture.
The test system of series [2] is Escherchia coli 10418. Described as above.
Procedure: as §1
Series [3] concerns Staph. aureus Oxford. The description is as above.
Procedure: as §1
For series [4], the system named is Bacillus subtilis A. The description is as above.
Procedure: as §1
In series [5] the test system is strains of Klebsiella aerogenes (A, E 70, 62). In words: Growth inhibition of the test organisms of Table 8 by the esters alone. Particulars: read-out: concentration at which growth of the test organisms was not inhibited.
Procedure: The final dilution of the inoculum was 0.5 ×10^-2. The tray was incubated at 37° C overnight and a record made next morning of the end points of bacterial growth.
The test system of series [6] is Klebsiella aerogenes A. The series can be described thus: Growth inhibition / synergism. The class given is cell-based. To be noted: for MIC: Klebsiella aerogenes, agent alone, read-out: concentration in whose presence growth is not inhibited; for concentration inhibiting growth when 5 μg/ml. of clavulanic acid is also present: plus 5 μg/ml clavulanic acid.
Series [7] has as its system Klebsiella aerogenes A. The series can be described thus: MIC / synergism, microtitre method (Example 42). The series is classed as cell-based. Particulars: for Antibacterial synergism value, +5μg/ml. synergist (M.I.C. by method of Example 42): +5μg/ml. synergist (clavulanic acid sodium salt); for MIC: Klebsiella aerogenes, Alone (Tables 7, 8), Example 42 records M.I.C. in μg/ml, read-out: Antibacterial synergism value, Alone (M.I.C. by method of Example 42).

For series [8], the system named is Klebsiella aerogenes 62. In words: MIC / synergism, microtitre method (Example 42). The series is classed as cell-based. To be noted: for Antibacterial synergism value, +5μg/ml. synergist (M.I.C. by method of Example 42): +5μg/ml. synergist (clavulanic acid sodium salt); for MIC: Klebsiella aerogenes, 62, Alone (Tables 7, 8), Example 42 records M.I.C. in μg/ml, read-out: Antibacterial synergism value, Alone (M.I.C. by method of Example 42).

Series [9] relates to Klebsiella aerogenes E 70. In words: MIC / synergism, microtitre method (Example 42). The class given is cell-based. To be noted: for Antibacterial synergism value, +5μg/ml. synergist (M.I.C. by method of Example 42): +5μg/ml. synergist (clavulanic acid sodium salt); for MIC: Klebsiella aerogenes.
Series [10] concerns Proteus mirabilis C889. The series can be described thus: M.I.C. synergism with clavulanic acid methyl ester (Example 32). The series is classed as cell-based. Particulars: plus 5 μg/ml clavulanic acid methyl ester.
In series [11] the test system is Staphylococcus aureus (Russell). Described as above. The series is classed as cell-based.
Series [12] concerns Escherichia coli NCTC 10481. The series can be described thus: MIC / synergism, microtitre method (Example 42). To be noted: NCTC10481, agent alone, inoculum final dilution 0.5 ×10^-2, 37° C overnight, read-out: Minimum Inhibitory Concentration. The series is classed as cell-based.
Series [13] concerns Serratia marcescens. In words: MIC / synergism, microtitre method (Example 42). The series is classed as cell-based. Particulars: agent alone, inoculum final dilution 0.5 ×10^-2, 37° C overnight, read-out: Minimum Inhibitory Concentration.
The subject of series [14] is Staphylococcus aureus Russell. In words: Growth inhibition / synergism. The series is classed as cell-based. To be noted: for MIC: Staphylococcus aureus, agent alone, read-out: concentration in whose presence growth is not inhibited.
Series [15] deals with Staphylococcus aureus. In words: MIC / synergism, microtitre method (Example 42). The series is classed as cell-based. To be noted: for MIC: Staphylococcus aureus, agent alone (Tables 5, 6), inoculum final dilution 0.5 ×10^-2, 37° C overnight, read-out: Minimum Inhibitory Concentration.
The subject of series [16] is Staphylococcus aureus (Russell). The series can be described thus: MIC / synergism, microtitre method (Example 42). The class given is cell-based.
In series [17] the test system is Proteus mirabilis 899. The series can be described thus: microbe, parasite or virus in culture. To be noted: method of Example 42. The class given is cell-based.
The nature of series [18]: Hydrolysis of the methyl ester to clavulanic acid in pH 7 buffer. The class given is physicochemical. The protocol: The reaction was followed by paper chromatography (bioautographic system). Using the butanol/ethanol/water system to follow the reaction over a period of 2 hours the zone of the methyl ester at Rf 0.79 decreased in size as the zone of clavulanic acid at Rf 0.12 increased.

Series [19] has as its system bacteria. In words: Tests for antibacterial activity in broth (Example 32). The series is classed as cell-based. To be noted: may be due to clavulanic acid liberated by hydrolysis.
For series [20], the target named is T1, β-lactamase produced by Escherichia coli JT4 (Escherichia coli, UniProt P62593).
T1 construct: This cell suspension was then disrupted in an MSE ultrasonic disintegrator; endogenous in cells; supernatant of sonicated cells
T1 sequence (P62593 24-286 limits assumed): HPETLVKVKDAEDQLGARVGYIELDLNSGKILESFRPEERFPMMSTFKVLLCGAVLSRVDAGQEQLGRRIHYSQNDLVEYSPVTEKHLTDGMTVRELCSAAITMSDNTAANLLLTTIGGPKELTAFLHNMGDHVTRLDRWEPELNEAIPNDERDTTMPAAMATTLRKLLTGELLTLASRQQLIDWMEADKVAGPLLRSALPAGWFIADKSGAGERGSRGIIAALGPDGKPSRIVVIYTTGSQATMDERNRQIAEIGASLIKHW
The series can be described thus: β-lactamase inhibition assay (Description 1). The series is classed as biochemical.
Procedure: Solutions containing clavulanic acid (culture filtrate, samples from isolation procedure and the like) are incubated for 15 minutes with a β-lactamase preparation in 0.05M phosphate buffer at pH 7 and 37° C. During this time, enzyme inhibition or inactivation occurs. Substrate (benzylpenicillin) is then added and incubation continued for 30 minutes at 37° C. The amount of enzymic degradation of the substrate to penicilloic acid is determined by the hydroxylamine assay for penicillin. The amount of β-lactamase used is such as to give 75% hydrolysis of the benzylpenicillin in 30 minutes at 37° C.
The extent of hydrolysis is a reflection of the amount of enzyme remaining uninhibited.
The β-lactamase produced by Escherichia coli JT4 is used as an enzyme. […] Other similar R-factor controlled β-lactamases may be used if desired.
For use in the assay procedure, the supernatant is diluted in 0.005M phosphate buffer until it gives about 75% hydrolysis of a 1 mg/ml. solution of benzylpenicillin in 30 minutes at 37° C.
Suitable dilutions of the inhibitor preparation and β-lactamase solution are mixed and incubated at 37° C for 15 minutes (Test). […] The absorption of the final solutions is measured in an E.E.L. Colorimeter or a Spectrophotometer at 490 nm against the reagent blank.
The percentage inhibition of the β-lactamase is calculated as follows […]

Setting [21] is: heavy inoculum, 1/100 dilution of overnight broth, Example 30 records MIC in μg/ml.
Where [22] appears, read: with 5 μg/ml of benzyl ester of clavulanic acid.
Setting [23] is: with 5 μg/ml of methyl ester of clavulanic acid.
Where [24] appears, read: plus 5 μg/ml clavulanic acid sodium salt, method of Example 42.

Values after ≈ are worked out from the molar mass of the structure shown. Read-outs that look alike come from different tables or passages of the source.

Take `O=C(OCc1ccccc1)[C@H]1/C(=C/CO)O[C@@H]2CC(=O)N21` [Benzyl ester, benzyl ester of 3-(β-hydroxyethylidine)-7-oxo-4-oxa-1-azabicyclo [3,2,0]heptane-2-carboxylic acid]: the MIC in [1] (Staphylococcus aureus) was 125 µg/mL (≈ 432 µM); in series [2], 125 µg/mL (≈ 432 µM); in series [3] (Staphylococcus aureus) it was 62 µg/mL (≈ 214 µM); in series [4] (Bacillus subtilis), 250 µg/mL (≈ 864 µM); in series [5], over 100 µg/mL.

`CC1(C)S[C@@H]2[C@H](NC(=O)Cc3ccccc3)C(=O)N2[C@H]1C(=O)O` [Benzylpenicillin, benzylpenicillin]: the MIC in series [6] was over 125 µg/mL; in series [7], 250 µg/mL; in [8], 250 µg/mL; in series [9] (E70, read-out: Antibacterial synergism value, Alone (M.I.C. by method of Example 42)), 500 µg/mL. Besides, the “concentration inhibiting growth when 5 μg/ml. of clavulanic acid is also present” value in series [6] was “less than 12.5 μg/ml”. Besides, the figures for the “Antibacterial synergism value, +5μg/ml. synergist (M.I.C. by method of Example 42)” value in [7], in [8] and in [9] were 7.8, 15.6 and 15.6, respectively.

Take `CCCCCCCCCOC(=O)[C@H]1/C(=C/CO)O[C@@H]2CC(=O)N21` [Nonyl ester, Nonyl Clavulanate]: the MIC in [1] (Staphylococcus aureus) came out at 31 µg/mL (≈ 95.3 µM); in series [2], 250 µg/mL (≈ 768 µM); in series [3] (Staphylococcus aureus), 31 µg/mL (≈ 95.3 µM); in series [4] (Bacillus subtilis), 31 µg/mL (≈ 95.3 µM).

For `O=C1OC(OC(=O)[C@H]2/C(=C/CO)O[C@@H]3CC(=O)N32)c2ccccc21` (stereo partly shown) [Phthalidyl ester, Clavulanic Acid Phthalide Esters], the MIC in [1] (setting [21]) was 15; in series [2] (setting [21]) it was 125; in [3] (setting [21]), 31; in series [4] (setting [21]), 125.

Take `CC(C)(C)C(=O)OCOC(=O)[C@H]1/C(=C/CO)O[C@@H]2CC(=O)N21` [Pivaloyloxymethyl ester, Pivaloyloxymethyl Clavulanate]: the MIC in [1] (Staphylococcus aureus) was 62 µg/mL (≈ 198 µM); in [2], 125 µg/mL (≈ 399 µM); in series [3] (Staphylococcus aureus), 31 µg/mL (≈ 98.9 µM); in [4] (Bacillus subtilis) it was 62 µg/mL (≈ 198 µM).

For `CC1(C)S[C@@H]2[C@H](NC(=O)[C@H](N)c3ccccc3)C(=O)N2[C@H]1C(=O)O` [ampicillin], the “M.I.C. in the presence of 5 μg/ml. clavulanic acid methyl ester” value in series [10] is 31 µg/mL. Further, the “M.I.C. in the presence of 1.0 μg/ml. clavulanic acid methyl ester” value in series [11] (plus 1 μg/ml clavulanic acid methyl ester) was under 0.4 µg/mL. Further, the MIC in series [12] is 1.8 µg/mL; in series [13], over 500 µg/mL; in [14], over 100 µg/mL; in series [15], 250 µg/mL. Also, the “concentration inhibiting growth in the presence of 1 μg/ml. of clavulanic acid” value in [14] (plus 1 μg/ml clavulanic acid) was “less than 10 μg/ml”. Moreover, the “Ampicillin 5 μg/ml of Benzyl Ester of clavulanic acid (M.I.C. by method of Example 42)” value was 1.9 in series [7] (setting [22]), 3.9 in [8] (setting [22]) and 3.9 in series [9] (setting [22]). Moreover, the results for the “Ampicillin 5 μg/ml of Methyl Ester of clavulanic acid (M.I.C. by method of Example 42)” value in [7] (setting [23]), in series [8] (setting [23]) and in series [9] (setting [23]) were 1.9, 3.9 and 3.9, respectively.

For `CC1(C)S[C@@H]2[C@H](NC(=O)C(C(=O)O)c3ccccc3)C(=O)N2[C@H]1C(=O)O` (stereo partly shown) [carbenicillin], the MIC in series [6] is over 125 µg/mL; in [7] it was 500 µg/mL; in [8] it was 125 µg/mL; in [9] (E70, Alone (Tables 7, 8), Example 42 records M.I.C. in μg/ml, read-out: Antibacterial synergism value, Alone (M.I.C. by method of Example 42)) it was 500 µg/mL. In addition, the “concentration inhibiting growth when 5 μg/ml. of clavulanic acid is also present” value in series [6] is “less than 12.5 μg/ml”. Further, the “Antibacterial synergism value, +5μg/ml. synergist (M.I.C. by method of Example 42)” value in series [7] was found to be 7.8; in series [8] it was 7.8; in series [9], 15.

As to `O=C(Cc1cccs1)N[C@@H]1C(=O)N2C(C(=O)[O-])=C(C[n+]3ccccc3)CS[C@H]12` [cephaloridine], the “M.I.C. in the presence of 1.0 μg/ml. clavulanic acid methyl ester” value in [11] is under 0.03 µg/mL. Also, the MIC was 1.5 µg/mL in series [11] (Staphylococcus aureus, antibiotic alone, read-out: minimum inhibitory concentration (M.I.C.)); 15 µg/mL in [15]; 3.1 µg/mL in [16] (Staphylococcus aureus, agent alone (Tables 5, 6), inoculum final dilution 0.5 ×10^-2, 37° C overnight, read-out: Minimum Inhibitory Concentration); 62 µg/mL (≈ 149 µM) in [17] (Proteus mirabilis, 899, agent alone, * = Tailing Point, read-out: Minimum Inhibitory Concentration). For the same compound, the “Minimum Inhibitory Concentration in presence of 5μg/ml clavulanic acid sodium salt” value in series [15] (setting [24]) was 3.7 µg/mL; in series [16] (setting [24]) it was under 0.03 µg/mL; in series [17] (plus 5 μg/ml clavulanic acid sodium salt) it was 7.5 µg/mL.

For `COC(=O)[C@H]1/C(=C/CO)O[C@@H]2CC(=O)N21` [clavulanic acid methyl ester], the MIC in series [6] is over 10 µg/mL; in series [5], over 100 µg/mL. Further, in series [18] (1 mg/ml, 37° C, 0.05M phosphate buffer pH 7, followed over 2 hours by paper chromatography), the “conversion of the ester to clavulanic acid” value is recorded as “Slow conversion of the ester to clavulanic acid”. In addition, in [18] (water buffered to pH7), the “hydrolysis to clavulanic acid” value is recorded as “slowly hydrolyze to clavulanic acid”. The “antibacterial activity in broth” value in series [19] was “broad spectrum activity but of a lower order than shown by clavulanic acid”.

On to `O=C(O)[C@H]1/C(=C/CO)O[C@@H]2CC(=O)N21` [clavulanic acid, Z-(2R,5R)-3-(β-hydroxyethylidene)-7-oxo-4-oxa-1-azabicyclo[3,2,0]heptane-2-carboxylic acid], for which the “mode of inhibition of the β-lactamase of Escherichia coli” value in series [20] was “progressively and irreversibly inhibits”. Moreover, the MIC in series [14] is over 5 µg/mL.
